Laboratory results as given in patent publication US9745328B2, “Flap modulators” (JANSSEN PHARMACEUTICA NV, priority 2013, dated 2017).
Where two headings read alike, the source gives them in different places.

Assays:
[1] = tested on: leukotriene pathway in human whole blood (LTB4); assay: Human whole blood assay (LTB4 levels after calcium ionophore A23187 stimulation); format: cell-based
Experimental: The ability of the compounds of the present invention to treat a FLAP-mediated disease and/or disorder, or associated symptoms or complications thereof, was determined using the following procedures. Binding assay data represent the average value obtained from two different assay plates, with samples run in duplicate on each plate. Human whole blood assay data represent a single replicate on an assay plate using whole blood from at least one healthy donor.
An in vitro cellular assay was performed using human whole blood collected in heparin-containing tubes, which was used to test the ability of compounds to modulate the leukotriene pathway in human whole blood. The blood was diluted 1:1 in RPMI medium, pre-incubated for 15 min at 37° Celsius with test compounds at various concentrations, and then stimulated with calcium ionophore, A23187 (7 μg/mL), for 30 min at 37° Celsius. The samples were then centrifuged and plasma was removed. The plasma was diluted in assay buffer and LTB4 levels were measured using a commercial kit (Enzo Life Sciences). The concentration of each compound that was required for half-maximal inhibition (modulation) of recombinant enzyme activity (IC50) was calculated by a 4-parameter equation using the program GraphPad Prism (GraphPad software).

human FLAP = human FLAP (Homo sapiens (Human), UniProt P20292); assay: FLAP binding assay (HTRF format)
In short: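 Samples were run in duplicate on each of two assay plates, the results were averaged, and the signal was expressed as an HTRF ratio.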

[2] = Homo sapiens, Table 6 (additional runs); human whole blood diluted 1:1, A23187 stimulation; read-out: Human Whole Blood LTB4 IC50 1:1
[3] = Table 6 (additional runs), human FLAP wild type
[4] = Homo sapiens, human whole blood diluted 1:1, A23187 stimulation; Table 6 (additional runs); read-out: Human Whole Blood LTB4 IC50 1:1
[5] = human FLAP wild type, Table 6 (additional runs)

human FLAP, sequence (P20292 whole entry): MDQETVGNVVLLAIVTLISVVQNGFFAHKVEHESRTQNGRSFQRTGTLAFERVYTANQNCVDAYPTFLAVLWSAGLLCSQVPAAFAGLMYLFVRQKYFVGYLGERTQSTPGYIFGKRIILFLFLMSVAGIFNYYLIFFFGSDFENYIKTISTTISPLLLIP

| Structure (SMILES) | IC50 [1, 2] | Ki (human FLAP; [3]) | Ki (human FLAP; human FLAP wild type, a calculated value of 0.000 indicates Ki less than 1 nM) | IC50 [1, 4] | Ki (human FLAP; [5]) |
| --- | --- | --- | --- | --- | --- |
| Nc1cnc(-c2ccc(-c3ccccc3S(=O)(=O)N3CCCCC3)cc2F)cn1 [Example 43, 5-[3-fluoro-2′-(piperidin-1-ylsulfonyl)biphenyl-4-yl]pyrazin-2-amine] | 38.1 nM | 3 nM |  |  |  |
| Nc1cnc(-c2ccc(-c3ccccc3S(=O)(=O)N3CCNCC3)cc2F)cn1 [Example 46, 5-[3-Fluoro-2′-(piperazin-1-ylsulfonyl)biphenyl-4-yl]pyrazin-2-amine] | 177 nM | 61.5 nM |  |  |  |
| CN1CCN(S(=O)(=O)c2ccccc2-c2ccc(-c3cnc(N)cn3)c(F)c2)CC1 [Example 54, 5-{3-Fluoro-2′-[(4-methylpiperazin-1-yl)sulfonyl]biphenyl4-yl}pyrazin-2-amine] | 41.3 nM | 24.9 nM |  |  |  |
| N#CC1CCN(S(=O)(=O)c2ccccc2-c2ccc(-c3cnc(N)cn3)c(F)c2)CC1 [Example 64, 1-{[4′-(5-Aminopyrazin-2-yl)-3′-fluorobiphenyl-2-yl]sulfonyl}piperidine-4-carbonitrile] | 13.1 nM | 1.9 nM |  |  |  |
| Nc1cnc(-c2ccc(-c3ccccc3S(=O)(=O)N3CCC(O)CC3)cc2F)cn1 [Example 67, 1-{[4′-(5-Aminopyrazin-2-yl)-3′-fluorobiphenyl-2-yl]sulfonyl}piperidin-4-ol] | 16.8 nM | 4.2 nM |  |  |  |
| Nc1cnc(-c2ccc(-c3ccccc3S(=O)(=O)N3CCC(CO)CC3)cc2F)cn1 [Example 68, (1-{[4′-(5-Aminopyrazin-2-yl)-3′-fluorobiphenyl-2-yl]sulfonyl}piperidin-4-yl)methanol] | 10.9 nM | 1.1 nM |  |  |  |
| Nc1cnc(-c2ccc(-c3ccccc3S(=O)(=O)N3CCC[C@@H]3CO)cc2F)cn1 [Example 91, (R)-(1-((4′-(5-aminopyrazin-2-yl)-3′-fluoro-[1,1′-biphenyl]-2-yl)sulfonyl)pyrrolidin-2-yl)methanol] | 38.3 nM | 4.7 nM |  |  |  |
| Nc1cnc(-c2ccc(-c3ccccc3S(=O)(=O)NC[C@H](O)c3ccccc3)cc2F)cn1 [Example 117, (R)-4′-(5-aminopyrazin-2-yl)-3′-fluoro-N-(2-hydroxy-2-phenylethyl)-[1,1′-biphenyl]-2-sulfonamide] | 6.6 nM | 0.7 nM |  |  |  |
| CC(C)N(CCO)S(=O)(=O)c1ccccc1-c1ccc(-c2cnc(N)cn2)c(F)c1 [Example 141, 4′-(5-Aminopyrazin-2-yl)-3′-fluoro-N-(2-hydroxyethyl)-N-(1-methylethyl)biphenyl-2-sulfonamide] | 3.3 nM | 0.7 nM |  |  |  |
| Nc1cnc(-c2ccc(-c3ccccc3S(=O)(=O)N[C@H]3c4ccccc4C[C@@H]3O)cc2F)cn1 [Example 158] | 1.4 nM | 0.6 nM |  |  |  |
| Nc1cnc(-c2ccc(-c3ccccc3S(=O)(=O)N[C@@H]3c4ccccc4C[C@H]3O)cc2F)cn1 [Example 159, 4′-(5-aminopyrazin-2-yl)-3′-fluoro-N-((1R,2R)-2-hydroxy-2,3-dihydro-1H-inden-1-yl)-[1,1′-biphenyl]-2-sulfonamide] | 1.3 nM | 0.8 nM |  |  |  |
| Nc1cnc(-c2ccc(-c3ccccc3S(=O)(=O)N[C@H]3c4ccccc4C[C@H]3O)cc2F)cn1 [Example 160, 4′-(5-aminopyrazin-2-yl)-3′-fluoro-N-((1S,2R)-2-hydroxy-2,3-dihydro-1H-inden-1-yl)-[1,1′-biphenyl]-2-sulfonamide] | 5.3 nM | 0.4 nM | < 1 nM |  |  |
| Nc1cnc(-c2ccc(-c3ccccc3S(=O)(=O)C3CCCC3)cc2F)cn1 [Example 195, 5-[2′-(Cyclopentylsulfonyl)-3-fluorobiphenyl-4-yl]pyrazin-2-amine] | 69 nM | 2.3 nM |  |  |  |
| Nc1cnc(-c2ccc(-c3ccccc3S(=O)(=O)C3CCC3)cc2F)cn1 [Example 196, 5-[2′-(Cyclobutylsulfonyl)-3-fluorobiphenyl-4-yl]pyrazin-2-amine] | 96.3 nM | 7.8 nM |  |  |  |
| CCCCCCS(=O)(=O)c1ccccc1-c1ccc(-c2cnc(N)cn2)c(F)c1 [Example 198, 5-[3-Fluoro-2′-(hexylsulfonyl)biphenyl-4-yl]pyrazin-2-amine] | 819 nM | 72.1 nM |  |  |  |
| CN1CCN(S(=O)(=O)c2cc(C(F)(F)F)ccc2-c2ccc(-c3cnc(N)cn3)c(F)c2)CC1 [Example 212, 5-{3-Fluoro-2′-[(4-methylpiperazin-1-yl)sulfonyl]-4′-(trifluoromethyl)biphenyl-4-yl}pyrazin-2-amine] | 5.3 nM | 0.8 nM |  |  |  |
| CC(C)(C)NS(=O)(=O)c1ccccc1-c1ccc(-c2cnc3[nH]ccc3c2)c(F)c1 [Example 367, N-tert-Butyl-3′-fluoro-4′-(1H-pyrrolo[2,3-b]pyridin-5-yl)biphenyl-2-sulfonamide] | 5.6 nM | 0.9 nM |  |  |  |
| CCN(CC)S(=O)(=O)c1ccccc1-c1ccc(-c2cnc3[nH]ccc3n2)c(F)c1 [Example 373, N-Diethyl-3′-fluoro-4′-(5H-pyrrolo[2,3-b]pyrazin-2-yl)biphenyl-2-sulfonamide] | 6.6 nM | 0.8 nM |  |  |  |
| CC(C)(C)NS(=O)(=O)c1ccccc1-c1ccc(-c2cnc(N)c(N)n2)c(F)c1 [Example 428, N-tert-Butyl-4′-(5,6-diaminopyrazin-2-yl)-3′-fluorobiphenyl-2-sulfonamide] |  |  |  | 4.4 nM | 4.3 nM |
| CC(C)(C)NS(=O)(=O)c1ccccc1-c1ccc(-c2cnc(N)c(Cl)n2)c(F)c1 [Example 441, 4′-(5-Amino-6-chloropyrazin-2-yl)-N-tert-butyl-3′-fluorobiphenyl-2-sulfonamide] |  |  |  | 6.5 nM | 0.8 nM |
| Nc1cnc(-c2ccc(-c3ccccc3OC(F)(F)F)cc2F)cn1 [Example 475, 5-[3-Fluoro-2′-(trifluoromethoxy)biphenyl-4-yl]pyrazin-2-amine] |  |  |  | 4180 nM | 89.6 nM |
| Nc1cnc(-c2ccc(-c3ccccc3O)cc2F)cn1 [Example 476, 4′-(5-aminopyrazin-2-yl)-5′-fluorobiphenyl-2-ol] |  |  |  | 350 nM | 24.1 nM |
| Nc1cnc(-c2ccc(-c3ccccc3S(=O)(=O)c3ccccc3)cc2F)cn1 [Example 477, 5-[3-Fluoro-2′-(phenylsulfonyl)biphenyl-4-yl]pyrazin-2-amine] |  |  |  | 268 nM | 14.7 nM |
| CC(C)c1ccccc1-c1ccc(-c2cnc(N)cn2)c(F)c1 [Example 482, 5-[3-Fluoro-2′-(1-methylethyl)biphenyl-4-yl]pyrazin-2-amine] |  |  |  | 320 nM | 60.9 nM |
| Nc1ncc(-c2ccc(-c3ccc(C(F)(F)F)cc3C(=O)N3CCOCC3)cc2F)cn1 [Example 522, 5-[3-Fluoro-2′-(morpholin-4-ylcarbonyl)-4′-(trifluoromethyl)biphenyl-4-yl]pyrimidin-2-amine] |  |  |  | 264 nM | 286 nM |
| Nc1cnc(-c2ccc(-c3ccccc3Oc3cc(N)ncn3)cc2F)cn1 [Example 535, 6-{[4′-(5-Aminopyrazin-2′yl)-3′-fluorobiphenyl-2-yl]oxy}pyrimidin-4′-amine] |  |  |  | 15.5 nM | 1.5 nM |
| CCNS(=O)(=O)c1cc(C(F)(F)F)ccc1-c1cnc(-c2cnc(N)nc2)c(F)c1 [Example 674, 2-[6-(2-Aminopyrimidin-5-yl)-5-fluoropyridin-3-yl]-N-ethyl-5-(trifluoromethyl)benzenesulfonamide] |  |  |  | 13.3 nM | 3.6 nM |
